Source: patent publication US10941180B2, “Peptoid compound, and derivative, salt, preparation method and use thereof” (BOE Technology Group Co., Ltd., priority 2018, dated 2021)
pKd: −log10 of the molar value. Where two headings read alike, the source gives them in different places. Starred links: 1 amine or outer side, 2 acyl side, 3 side chain; linkers in the order of their positions; H or OH if unused. Non-standard residues stand in square brackets, D forms with d. Residues, ends and D or L forms follow the SMILES beside them. X2 = O=C(CN(CCc1ccc(-c2ccccc2)cc1)[*:1])[*:2]; Gly(N-piperonyl) = O=C(O)CNCc1ccc2c(c1)OCO2; X1 = CC(c1ccccc1)N(CC(=O)[*:2])[*:1]; Gly(N-2-aminoethyl) = NCCNCC(=O)O; Nleu = CC(C)CNCC(=O)O; Nlys = NCCCCNCC(=O)O

Experiments:
[1] = biological target: T1, Her2 protein in the serum (Homo sapiens, UniProt P04626); assay: Detection of serum signals of breast cancer patients and normal persons by SPRi with the peptoid probe chip; type: binding; conditions: serum diluted 1:5000; probe concentrations 80 μM, 400 μM, 2 mM, 10 mM, 50 mM; FIG. 3
T1 construct: introducing the serum of the patient with breast cancer and the normal person (diluted 1:5000 in volume); from tissue; host or cells: human serum (breast cancer patients with high Her2 expression, and normal persons)
Protocol: (§1) The SPRi apparatus described in the following examples was Plexera Kx5V2, Plexera Bioscience LLC, USA; and phosphate buffer saline (PBS), phosphoric acid, and proteinase K were prepared according to the product instruction manual.
Unless otherwise indicated, “patients with breast cancer” herein refers to patients with breast cancer having a high Her2 expression.
The specific steps for testing the detection of the peptoid compound of Preparation Example 1 or the peptoid Derivative of Preparation Example 2 for the blood of the patients with breast cancer by surface plasmon resonance imaging techniques are shown as follows:
(1) in the same manner as in Experimental Example 1, preparing the same 3D chip as in Experimental Example 1, mounting the chip on the SPRi instrument, measuring SPRi angle and adjusting it to the optimal optical position, in which relevant detection points including sample points and blank points are selected in the detection area, and the experimental flow rate is set to 2 μL/s; […]

[2] = biological target: T2, Her2 protein (Homo sapiens, UniProt P04626); assay: Binding ability to Her2 protein by surface plasmon resonance imaging (SPRi)
T2 construct: purchased Sigma (USA)
Protocol: as §1
Unless otherwise indicated, “Her2 protein” herein refers to the full-length Her2 protein.
The specific steps for testing the binding ability of the peptoid compound of Preparation Example 1 or the peptoid Derivative of Preparation Example 2 to the Her2 protein by surface plasmon resonance imaging techniques are shown as follows:
(1) dissolving the peptoid compound of Preparation Example 1 or the peptoid derivative of Preparation Example 2 into ddH2O at a concentration of 1 to 1000 μM to prepare a peptoid compound molecular probe sample to be spotted at a gradient concentration of 1-1000 μM;
(2) spotting the above peptoid compound molecular probe sample on a surface of a 3D chip (PlexArray HT, Plexera Bioscience, USA), in which each sample is repeated for 3 points, incubated at 4° C. for 12 hours, and washed by 10×PBS, 1×PBS and ultrapure water in sequence. The chip was then blocked with 1 M of aminoethanol hydrochloride for 30 minutes, then washed 5 times with ultrapure water, and finally dried with clean nitrogen; […]

T2 sequence (P04626 23-1255): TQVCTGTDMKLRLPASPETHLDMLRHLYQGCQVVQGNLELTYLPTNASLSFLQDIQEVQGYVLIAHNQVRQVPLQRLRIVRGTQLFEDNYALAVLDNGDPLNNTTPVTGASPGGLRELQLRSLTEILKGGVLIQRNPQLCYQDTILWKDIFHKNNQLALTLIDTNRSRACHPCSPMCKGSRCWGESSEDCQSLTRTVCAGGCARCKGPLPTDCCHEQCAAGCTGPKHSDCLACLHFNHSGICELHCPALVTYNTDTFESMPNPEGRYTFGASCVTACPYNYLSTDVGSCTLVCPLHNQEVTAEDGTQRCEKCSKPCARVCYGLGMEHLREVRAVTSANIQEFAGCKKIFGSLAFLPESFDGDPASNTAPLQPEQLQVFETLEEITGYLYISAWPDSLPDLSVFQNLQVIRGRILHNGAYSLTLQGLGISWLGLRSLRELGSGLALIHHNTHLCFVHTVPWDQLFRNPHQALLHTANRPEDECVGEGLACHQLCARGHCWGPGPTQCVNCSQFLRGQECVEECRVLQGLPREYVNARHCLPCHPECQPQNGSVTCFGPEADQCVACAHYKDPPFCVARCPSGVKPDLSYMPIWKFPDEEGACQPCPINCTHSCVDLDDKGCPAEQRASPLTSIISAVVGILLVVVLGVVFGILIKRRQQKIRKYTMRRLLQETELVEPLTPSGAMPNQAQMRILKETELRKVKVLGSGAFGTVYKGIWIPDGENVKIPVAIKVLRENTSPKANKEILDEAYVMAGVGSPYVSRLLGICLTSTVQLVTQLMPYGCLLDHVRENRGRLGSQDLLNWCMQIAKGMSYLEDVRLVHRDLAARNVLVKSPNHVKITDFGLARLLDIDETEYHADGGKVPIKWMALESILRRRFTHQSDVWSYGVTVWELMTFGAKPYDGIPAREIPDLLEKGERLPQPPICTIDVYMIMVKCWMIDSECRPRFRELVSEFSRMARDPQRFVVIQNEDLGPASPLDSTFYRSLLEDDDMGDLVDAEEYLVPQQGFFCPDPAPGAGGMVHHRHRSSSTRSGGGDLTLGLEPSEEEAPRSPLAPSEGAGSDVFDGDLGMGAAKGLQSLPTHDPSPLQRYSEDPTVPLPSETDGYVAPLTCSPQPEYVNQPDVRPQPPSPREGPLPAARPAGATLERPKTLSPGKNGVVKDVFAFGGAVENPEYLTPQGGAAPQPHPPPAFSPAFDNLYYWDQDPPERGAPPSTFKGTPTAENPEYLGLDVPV
T1 sequence (P04626 23-647 limits assumed): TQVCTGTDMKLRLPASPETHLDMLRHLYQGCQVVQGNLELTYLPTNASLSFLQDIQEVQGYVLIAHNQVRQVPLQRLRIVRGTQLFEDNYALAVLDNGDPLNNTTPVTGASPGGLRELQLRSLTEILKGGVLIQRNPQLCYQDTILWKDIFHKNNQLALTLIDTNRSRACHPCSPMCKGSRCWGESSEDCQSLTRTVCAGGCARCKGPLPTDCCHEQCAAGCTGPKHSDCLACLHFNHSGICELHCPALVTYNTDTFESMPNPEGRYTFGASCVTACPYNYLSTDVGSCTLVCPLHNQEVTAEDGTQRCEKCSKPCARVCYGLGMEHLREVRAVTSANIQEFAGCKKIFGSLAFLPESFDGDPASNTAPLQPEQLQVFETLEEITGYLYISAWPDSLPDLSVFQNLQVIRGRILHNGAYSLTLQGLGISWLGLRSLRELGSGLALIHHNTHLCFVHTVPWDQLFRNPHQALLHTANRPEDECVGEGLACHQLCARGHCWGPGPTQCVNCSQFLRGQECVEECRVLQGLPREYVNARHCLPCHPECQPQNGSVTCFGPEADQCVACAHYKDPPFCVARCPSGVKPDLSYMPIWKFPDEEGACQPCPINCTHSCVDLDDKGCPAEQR

pKd ([2]; probe spotted on 3D chip, Her2 at 2.632, 1.316, 0.658, 0.329 μM, fitted with BIAevalution 4.1, read-out: equilibrium dissociation constant KD): 7.21
pKd ([2]; read-out: equilibrium dissociation constant KD in the binding kinetic constant with Her2 (order of magnitude)): ~8.00
Compound: CC(C)CN(CC(=O)N(CCCCN)CC(=O)N(CC(=O)N(CCCCN)CC(=O)N(CCCCN)CC(=O)N(CCN)CC(=O)N(CCc1ccc(-c2ccccc2)cc1)CC(N)=O)Cc1ccc2c(c1)OCO2)C(=O)CN(C(=O)CNCCCCN)C(C)c1ccccc1 (stereo not drawn) [Preparation Example 1] (H-[Nlys][X1][Nleu][Nlys][Gly(N-piperonyl)][Nlys][Nlys][Gly(N-2-aminoethyl)][X2]-NH2)
distinction of serum samples of breast cancer patients from normal persons (ΔAU signal) [1]: clearly distinguish the serum samples of the patients with breast cancer
